US20210161997A1, “TREATING DISEASES VIA TARGETED MODULATION OF GENE SIGNALING NETWORKS” (Camp4 Therapeutics Corporation, priority 2018, published 2021)
Structures can show the parent of a compound that is named as a salt.

B1: GDF2 (BMP9): TGF-beta activator (protein, UniProt Q9UK05 320-429, looked up)
Growth/differentiation factor …: SAGAGSHCQKTSLRVNFEDIGWDSWIIAPKEYEAYECKGGCFFPLADDVTPTKHAIVQTLVHLKFPTKVGKACCVPTKLSPISVLYKDDMGVPTLKYHYEGMSVAECGCR
B2: BMP4: TGF-beta activator (protein, UniProt P12644 293-408, looked up)
Bone morphogenetic protein 4: SPKHHSQRARKKNKNCRRHSLYVDFSDVGWNDWIVAPPGYQAFYCHGDCPFPLADHLNSTNHAIVQTLVNSVNSSIPKACCVPTELSAISMLYLDEYDKVVLKNYQEMVVEGCGCR

What was measured:
Type in all cases: cell-based
JAG1 = experiment: RNA-seq of JAG1 expression in compound-treated primary human hepatocytes; conditions: for JAG1 Fold Change (Log2): primary human hepatocytes; for Significant modulation of JAG1 (in words): summary of Table 6
Procedure: (§1) Human hepatocytes were obtained from two donors from Massachusetts General Hospital, namely MGH54 and MGH63, and one donor from Lonza, namely HUM4111B. Cryopreserved hepatocytes were cultured in plating media for 16 hours, transferred to maintenance media for 4 hours. Cultured on serum-free media for 2 hours, then a compound was added. The hepatocytes were maintained on the serum-free media for 16 hours prior to gene expression analysis. Primary human hepatocytes were stored in the vapor phase of a liquid nitrogen freezer (about -130° C.). Human hepatocytes cultured as described above were plated in 24-well format, adding 375,000 cells per well in a volume of 500 ul plating medium. Four hours before treatment, cells were washed with PBS and the medium was changed to either: fresh maintenance medium (complete) or modified maintenance medium. Compound stocks were prepared at 1000× final concentration and added in a 2-step dilution to the medium to reduce risk of a compound precipitating out of solution when added to the cells, and to ensure reasonable pipetting volumes. […] The plate was mixed by carefully swirling and after all wells were treated and returned to the incubator overnight. If desired, separate plates/wells were treated with vehicle-only controls and/or positive controls. If using multi-well plates, controls were included on each plate. After about 18 hours, cells were harvested for further analysis, e.g., ChIP-seq, RNA-seq, ATAC-seq, etc. This protocol is a modified version of the following protocols: MagMAX mirVana Total RNA Isolation Kit User Guide (Applied Biosystems #MAN0011131 Rev B.0), NEBNext Poly(A) mRNA Magnetic Isolation Module ([…]), and NEBNext Ultra Directional RNA Library Prep Kit for Illumina ([…]) (New England Biosystems #E74901). […] Two hundred μl of Lysis Binding Mix was used per well of the multiwell plate containing adherent cells (usually a 24-well plate). For mRNA isolation and library prep, the NEBNext Poly(A) mRNA Magnetic Isolation Module and Directional Prep kit was used. RNA isolated from cells above was quantified, and prepared in […] of each sample in 50 μl of nuclease-free water. This protocol may be run in microfuge tubes or in a 96-well plate. […] Genomic alignments were converted to transcriptome alignments based on reference transcript annotations from the Human GENCODE Gene Set release 24 (Harrow et al., Genome Res. […] Standard QC were applied (read integrity, mapping statistics, library complexity, fragment bias) to remove unsatisfactory samples. Differential gene expression was computed using the negative binomial model implemented by DESeq2 version 1.16.1 (Love et al., Genome Biol. (2014) 15(12):550). […] RNA-seq signals were also normalized by read depth and visualized using the UCSC browser. To identify small molecules that modulate target gene expression, primary human hepatocytes were prepared as a monoculture, and at least one small molecule compound was applied to the cells. RNA-seq was performed to determine the effects of the compounds on the expression of the target genes in hepatocytes. Fold change was calculated by dividing the level of expression in the cell system that had been perturbed by the level of expression in an unperturbed system.

NOTCH2 = experiment: RNA-seq of NOTCH2 expression in compound-treated primary human hepatocytes; conditions: for NOTCH2 Fold Change (Log2): primary human hepatocytes
Procedure: as §1

ANGPTL3 = experiment: RNA-seq of ANGPTL3 expression in compound-treated primary human hepatocytes; conditions: additional compounds (Table 13), linear fold change
Procedure: (§2) Human hepatocytes were obtained from two donors from Massachusetts General Hospital, namely MGH54 and MGH63, and one donor from Lonza, namely HUM4111B. Cryopreserved hepatocytes were cultured in plating media for 16 hours, transferred to maintenance media for 4 hours. Cultured on serum-free media for 2 hours, then a compound was added. The hepatocytes were maintained on the serum-free media for 16 hours prior to gene expression analysis. Primary human hepatocytes were stored in the vapor phase of a liquid nitrogen freezer (about −130° C.).
(§3) Human hepatocytes cultured as described above were plated in 24-well format, adding 375,000 cells per well in a volume of 500 ul plating medium. Four hours before treatment, cells were washed with PBS and the medium was changed to either: fresh maintenance medium (complete) or modified maintenance medium.
(§4) Compound stocks were prepared at 1000× final concentration and added in a 2-step dilution to the medium to reduce risk of a compound precipitating out of solution when added to the cells, and to ensure reasonable pipetting volumes. One at a time, each compound was first diluted 10-fold in warm (about 37° C.) modified maintenance medium (initial dilution=ID), mixed by vortexing, and the ID was diluted 100-fold into the cell culture (e.g. 5.1 ul into 1 well of a 24-well plate containing 0.5 mL medium). The plate was mixed by carefully swirling and after all wells were treated and returned to the incubator overnight. If desired, separate plates/wells were treated with vehicle-only controls and/or positive controls. If using multi-well plates, controls were included on each plate. After about 18 hours, cells were harvested for further analysis, e.g., ChIP-seq, RNA-seq, ATAC-seq, etc.
(§5) This protocol is a modified version of the following protocols: MagMAX mirVana Total RNA Isolation Kit User Guide (Applied Biosystems #MAN0011131 Rev B.0), NEBNext Poly(A) mRNA Magnetic Isolation Module (E7490), and NEBNext Ultra Directional RNA Library Prep Kit for Illumina (E7420) (New England Biosystems #E74901).
(§6) The MagMAX mirVana kit instructions (the section titled “Isolate RNA from cells” on pages 14-17) were used for isolation of total RNA from cells in culture. Two hundred μl of Lysis Binding Mix was used per well of the multiwell plate containing adherent cells (usually a 24-well plate).
(§7) For mRNA isolation and library prep, the NEBNext Poly(A) mRNA Magnetic Isolation Module and Directional Prep kit was used. RNA isolated from cells above was quantified, and prepared in […] of each sample in 50 μl of nuclease-free water. This protocol may be run in microfuge tubes or in a 96-well plate.
All pass filter reads from each sample were mapped against the human genome (assembly GRCh38/GCA_000001405.15 “no alt” analysis set merged with hs38d1/GCA_000786075.2) using two pass mapping via STAR version 2.5.3a (alignment parameters alignIntronMin=20; alignIntronMax=1000000; outFilterMismatchNmax=999; outFilterMismatchNoverLmax=0.05; outFilterType=BySJout; outFilterMultimapNmax=20; alignSJoverhangMin=8; alignSJDBoverhangMin=1; alignMatesGapMax=1000000) (Dobin et al., Bioinformatics (2012) 29(1):15-21). Genomic alignments were converted to transcriptome alignments based on reference transcript annotations from the Human GENCODE Gene Set release 24 (Harrow et al., Genome Res. (2012) 22(9): 1760-1774). Using unique and multimapped transcriptomic alignments, gene-level abundance estimates were computed using RSEM version 1.3.0 (Li and Dewey, BMC Bioinformatics (2011) 12:323) in a strand-aware manner, and including confidence interval sampling calculations, to arrive at posterior mean estimates (PME) of abundances (counts and normalized FPKM—fragments per kilobase of exon per million mapped fragments) from the underlying Bayesian model. Standard QC were applied (read integrity, mapping statistics, library complexity, fragment bias) to remove unsatisfactory samples.

MECP2 mRNA [1] = experiment: MECP2 mRNA in primary human hepatocytes (donor 1, donor 2); conditions: average fold change; for Human hep donor-1 MECP2 (Avg_FC) 1 uM / Human hep donor-1 MECP2 (Avg_FC) 10 uM: human hepatocytes donor-1
Procedure: as §2, §3, §4
Samples were amplified using Taqman probes from ThermoFisher.

MECP2 mRNA [2] = experiment: MECP2 mRNA in stellate cells; conditions: average fold change; for Stellate MECP2 (Avg_FC) 1 uM: compound 1 uM; for Stellate MECP2 (Avg_FC) 10 uM: compound 10 uM
UGT1A1 = experiment: RNA-seq of UGT1A1 expression in compound-treated primary human hepatocytes
Procedure: as §2, §3, §4, §5, §6, §7
Standard QC were applied (read integrity, mapping statistics, library complexity, fragment bias) to remove unsatisfactory samples. […] Log 2 fold change and significance values were computed using PME count data (with replicates explicitly modeled versus pan-experiment controls), median ratio normalized, using maximum likelihood estimation rather than maximum a posteriori, and disabling the use of Cook's distance cutoff when determining acceptable adjusted p-values. […] RNA-seq signals were also normalized by read depth and visualized using the UCSC browser.
To identify small molecules that modulate target gene expression, primary human hepatocytes were prepared as a monoculture, and at least one small molecule compound was applied to the cells.
RNA-seq was performed to determine the effects of the compounds on the expression of the target genes in hepatocytes. Fold change was calculated by dividing the level of expression in the cell system that had been perturbed by the level of expression in an unperturbed system. Changes in expression having a p-value ≤0.05 were considered significant.
Significance was defined as an FPKM ≥1, a log 2(fold change) ≥0.5, and a q-value of ≤0.05 for all targets except for CPOX.

Molecule | JAG1 Fold Change (Log2) (JAG1) | Significant modulation of JAG1 (in words) (JAG1) | NOTCH2 Fold Change (Log2) (NOTCH2) | Human hep donor-1 MECP2 (Avg_FC) 1 uM (MECP2 mRNA [1]; compound 1 uM) | Human hep donor-1 MECP2 (Avg_FC) 10 uM (MECP2 mRNA [1]; compound 10 uM) | Stellate MECP2 (Avg_FC) 1 uM (MECP2 mRNA [2]) | Stellate MECP2 (Avg_FC) 10 uM (MECP2 mRNA [2]) | also measured
Cc1cc(-c2nc(-c3ccc(OC(F)(F)F)cc3)no2)nn1Cc1ccnc(N2CCN(C3CC3)CC2)c1 [BAY 87-2243] | 0.61 | significantly modulate only JAG1 | 0 | – | – | – | – | –
Cn1cc(C2=C(c3cn(C4CCN(Cc5ccccn5)CC4)c4ccccc34)C(=O)NC2=O)c2ccccc21 [Enzastaurin] | 1.03 | significantly modulate only JAG1 | 0 | – | – | – | – | ANGPTL3-LINEAR FOLD CHANGE (ANGPTL3): 0.2176
c1cc(-c2cnn3cc(-c4ccc(N5CCNCC5)cc4)cnc23)c2cccnc2c1 [LDN-212854] | 1.47 | significantly modulate only JAG1 | 0 | – | – | – | – | –
O=C1NC(=O)C(c2cnc3ccccn23)=C1c1cn2c3c(cc(F)cc13)CN(C(=O)N1CCCCC1)CC2 [LY2090314] | – | – | – | 2.43 | 1.94 | 2.65 | 2.20 | ANGPTL3-LINEAR FOLD CHANGE (ANGPTL3): 0.1895
Cc1ccc(F)c(NC(=O)Nc2ccc(-c3cccc4[nH]nc(N)c34)cc2)c1 [Linifanib (ABT-869), Linifanib] | – | – | – | 1.78 | 2.01 | 2.50 | 3.17 | –
O=C(O)[C@]1(Cc2cccc(Nc3nccs3)n2)CC[C@@H](Oc2cccc(Cl)c2F)CC1 [MK-5108 (VX-689)] | – | – | – | 2.42 | 2.35 | 2.17 | 2.01 | –
Cc1ccc(C(=O)Nc2ccc(Oc3cc4cnn(C)c4cc3-c3cn[nH]c3)c(F)c2)c(=O)n1-c1ccc(F)cc1 [Merestinib] | 0.76 | significantly modulate both JAG1 and NOTCH2 | 0.62 | – | – | – | – | UGT1A1 Fold Change (Log2) (UGT1A1): 0.76 Log2; Significant modulation of NOTCH2 (in words) (NOTCH2; summary of Table 6): significantly modulate both JAG1 and NOTCH2
[H]/N=C(/N)N/C(=N/[H])NCCc1ccccc1 [Phenformin] | 1.14 | significantly modulate only JAG1 | 0 | – | – | – | – | –
COc1ccc(Cl)c(Nc2nc3ccccc3nc2NS(=O)(=O)c2cccc(NC(=O)C(C)(C)N)c2)c1 [Pilaralisib (XL147), Pilaralisib] | – | – | – | 1.95 | 1.75 | 2.28 | 2.21 | ANGPTL3-LINEAR FOLD CHANGE (ANGPTL3): 0.2606
CCc1ccc(CCOc2ccc(CC3SC(=O)NC3=O)cc2)nc1 (stereo not shown) [Pioglitazone HCl] | – | – | – | 2.21 | 2.27 | 1.94 | 1.86 | –
CNC(=O)c1cc(Oc2ccc(NC(=O)Nc3ccc(Cl)c(C(F)(F)F)c3)c(F)c2)ccn1 [Regorafenib (BAY 73-4506)] | – | – | – | 2.05 | 1.92 | 2.31 | 2.77 | –
CCC(=O)N1CCN(c2ccc(-n3c(=O)ccc4cnc5ccc(-c6cnc7ccccc7c6)cc5c43)cc2C(F)(F)F)CC1 [torin1] | – | – | – | – | – | 1.87 | 3.65 | Human hep donor-2 MECP2 (Avg_FC) 1 uM (MECP2 mRNA [1]; human hepatocytes donor-2, compound 1 uM): 1.34; Human hep donor-2 MECP2 (Avg_FC) 10 uM (MECP2 mRNA [1]; human hepatocytes donor-2, compound 10 uM): 1.79
B1 | 1.03 | significantly modulate only JAG1 | 0 | – | – | – | – | –
B2 | 0.63 | significantly modulate only JAG1 | 0 | – | – | – | – | ANGPTL3-LINEAR FOLD CHANGE (ANGPTL3): 0.3463
